Data from the supplement of paper PMC10307832.

Assays:
Experiment in all cases: relative viability (nuclei count vs DMSO), 5 days (fraction); higher = more cells survive
BAM7 + Pemetrexed = compound: CCOC1=CC=CC=C1N=NC2=C(NN(C2=O)C3=NC(=CS3)C4=CC=CC=C4)C [BAM7] + Nc1nc2[nH]cc(CCc3ccc(C(=O)N[C@@H](CCC(=O)O)C(=O)O)cc3)c2c(=O)[nH]1 [Pemetrexed] (partner 0.2 µM)
Procedure, shortened: (§1)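 Lung cancer cell lines were pin-tool dosed in 1536-well plates on the day after seeding, with either a lone drug or a fixed anchor-drug dose plus five library-drug doses (not always all listed) in √10 steps. Nuclei were counted on 4× images after 5 days. Relative viability is the ratio of treated-well to vehicle-well nuclei counts, with each value a median of duplicate plates.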

[1] = compound: CCn1c(-c2nonc2N)nc2c(C#CC(C)(C)O)ncc(OC[C@H]3CCCNC3)c21 + COc1cccc2cc(-c3nc([C@H]4CC[C@H](C(=O)O)CC4)n4ncnc(N)c34)[nH]c12 [OSI-027] (partner 0.5 µM)
Procedure, shortened: as §1

[2] = compound: CCn1c(-c2nonc2N)nc2c(C#CC(C)(C)O)ncc(OC[C@H]3CCCNC3)c21 + Nc1ncn([C@H]2C[C@H](O)[C@@H](CO)O2)c(=O)n1 [Decitabine] (partner 2 µM)
Procedure, shortened: as §1

[3] = compound: CCn1c(-c2nonc2N)nc2c(C#CC(C)(C)O)ncc(OC[C@H]3CCCNC3)c21 + O=C(c1cc(Cc2n[nH]c(=O)c3ccccc23)ccc1F)N1CCN(C(=O)C2CC2)CC1 [Olaparib] (partner 8 µM)
Procedure, shortened: as §1

Cell Line	relative viability (BAM7 + Pemetrexed; first compound 0.5 µM)	relative viability (BAM7 + Pemetrexed; first compound 5 µM)	relative viability (BAM7 + Pemetrexed; first compound 15.81 µM)	relative viability (BAM7 + Pemetrexed; first compound 50 µM)	relative viability ([1]; first compound 0.01 µM)	relative viability ([1]; first compound 0.03162 µM)	relative viability ([1]; first compound 0.1 µM)	relative viability ([1]; first compound 0.3162 µM)	relative viability ([1]; first compound 1 µM)	relative viability ([2]; first compound 0.01 µM)	relative viability ([2]; first compound 0.03162 µM)	relative viability ([2]; first compound 0.1 µM)	relative viability ([2]; first compound 0.3162 µM)	relative viability ([2]; first compound 1 µM)	relative viability ([3]; first compound 0.01 µM)	relative viability ([3]; first compound 0.03162 µM)	relative viability ([3]; first compound 0.1 µM)	relative viability ([3]; first compound 0.3162 µM)	relative viability ([3]; first compound 1 µM)
LCLC-103H	0.524	0.491	0.487	0.444	0.463	0.477	0.481	0.425	0.356	0.726	0.797	0.737	0.716	0.781	0.705	0.795	0.747	0.766	0.795
PC-3 [JPC-3]	1.17	1.13	1.05	1.08	0.786	0.699	0.808	0.736	0.682	0.832		0.836	0.769	0.78	1.07		1.15	1.03	1.09
BEN	0.74	0.88	0.98	1	0.311	0.302	0.224	0.275	0.299	0.682	0.693	0.569	0.67	0.782	1.14	1.19	1.15	0.919	0.966
NCI-H1666	0.919	0.846	0.82	0.82	0.776	0.777	0.835	0.693	0.722	0.71	0.657	0.809	0.834	0.735	0.793	0.722	0.752	0.769	0.778
LC-2-ad	0.297	0.277	0.293	0.29	0.71	0.804	0.871	0.681	0.857	0.776	0.824	0.875	0.705	0.7	0.739	0.719	0.716	0.657	0.698
Calu-6															0.546	0.589	0.605	0.558	0.644
EBC-1															0.652	0.706	0.676	0.516	0.557
NCI-H1299															0.954	0.965	0.936	0.995	0.984
NCI-H2228	0.355	0.341	0.316	0.351	0.628	0.559	0.446	0.421	0.279						0.701	0.895	0.847	0.541	0.55
IA-LM															0.942	0.791	0.937	1.3	0.786
NCI-H727					0.617	0.58	0.535	0.551	0.528	1.03	0.976	0.943	0.825	0.714	0.801	0.668	0.751	0.805	0.869
CAL-12T	1.31	1.27	0.987	1.31	0.424	0.541	0.685	0.453	0.38						0.599	0.708	0.72	0.699	0.729
